Experimental data taken from US8338594B2, “Pyrrolotriazine derivatives useful for treating cancer through inhibition of aurora kinase” (Bayer HealthCare LLC, priority 2005, dated 2012).

Columns and labels:
Aurora Kinase 1 = target: T1, Aurora Kinase 1 (Homo sapiens, UniProt Q96GD4); assay: capture ELISA measuring Aurora Kinase 1 autophosphorylation in HT29 colon carcinoma cells; type: cell-based; conditions: HT29 cells synchronized for 24 hours, compound treatment 2 hours
T1 construct: endogenous in cells; host or cells: HT29 colon carcinoma cells
Method: To determine the ability of compounds to inhibit Aurora Kinase 1 activity in cells, a capture ELISA measuring Aurora Kinase 1 autophosphorylation was developed in HT29 colon carcinoma cells (Yasui Y, et al 2004). Briefly, 15,000 cells/well were seeded in a 96-well collagen coated plates in RPMI+10% FBS and incubated at 37° C. in 5% CO2 overnight. The following day, the cells were treated with 166 nM nacadazole compounds for 24 hours at 37° C. Synchronized cells were further treated with compounds for 2 hours. Compound dilutions were prepared from 0.1 mM DMSO stocks such that 1.1 μL of each dilution was added to obtain a final concentration ranging from 10 μM to 13 nM in one-third log steps. Following compound treatment, plates were centrifuged at 1000 rpm for 2 minutes and washed twice with 100 μL of cold sterile TBS. Cells were then lysed (100 μL of 150 mM NaCl, 20 mM Tris, pH 7.5, 1 mM EDTA, 1 mM EGTA, 1% Triton-x-100 plus protease and phosphatase inhibitors) by shaking at 4° C. for 1 hour. Cell lysates were transferred to plates pre-coated with anti-phospho mAur1 (Rockland, 600-401-677) and blocked with 5% blocker A in TBS from Meso Scale Discovery. After incubating for 1 hour at RT, plates were washed with 300 μL of TBST for a total of three times. The supernatant was removed and replaced with 50 μL of diluted primary antibody (anti-Aurora Kinase 1, Pharmingen, 611083) at 1:1000 in 2% blocker A in TBS and incubated at room temperature for 1 hour. The antibody buffer was removed from each well and washed three times with 300 μL of cold TBS-T ([…] Tris pH 8.0, 138 mM NaCl, 2.7 mM KCL, 0.05% Tween 20). The wash buffer was replaced with 50 μL of secondary antibody (Sulfa TAG anti-mouse, Meso Scale Discovery) at 1:1000 in 2% blocker A and incubated at room temperature for 1 hour. For the final readout with the Sector 6000, 150 μL of reading buffer T was added and the plates were read immediately.

[1] = target: T2, murine Aurora Kinase 2 (mAur2) (Mus musculus, UniProt P97477); assay: murine Aurora Kinase 2 (mAur2) biochemical Scintillation Proximity Assay; conditions: SPA, biotinylated Peptide 830, 1 μM ATP, 20 nM His-tagged mAur2
T2 construct: N-terminal His-tagged mAur2 (amino acids 98-395; DRT, Protein Sciences); His (N); made in house
T2 sequence (P97477 98-395): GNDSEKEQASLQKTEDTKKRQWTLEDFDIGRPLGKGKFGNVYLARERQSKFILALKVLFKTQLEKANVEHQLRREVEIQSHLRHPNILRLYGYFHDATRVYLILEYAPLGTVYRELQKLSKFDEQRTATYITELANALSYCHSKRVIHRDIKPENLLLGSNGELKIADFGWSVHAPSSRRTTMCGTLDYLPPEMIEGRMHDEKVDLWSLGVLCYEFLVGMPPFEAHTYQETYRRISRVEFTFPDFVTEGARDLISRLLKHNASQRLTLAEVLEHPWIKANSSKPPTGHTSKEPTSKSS
Method: (§1) Using a Scintillation Proximity Assay (SPA) format, the murine Aurora Kinase 1 (mAur1) and murine Aurora Kinase 2 (mAur2) biochemical assay measures the ability of mAur2 to phosphorylate the substrate, biotinylated Peptide 830 (DRT, Protein Sciences). Once radiolabeled by the enzyme, the biotinylated substrate is captured on streptavidin-coated SPA beads and the radioactivity, in proximity to the SPA beads, is measured. For the generation of IC50 curves, the reaction was performed in 96-well isoplates (Wallac 1450-514) under the following conditions: a 10 mM stock solution of compound (in 100% dimethylsulfoxide; DMSO) was diluted 10 fold in 100% DMSO. Compounds were then serially diluted, 1:5, for an eight point dose curve, in 100% DMSO. A volume of 1 μL of the diluted compound was added to the reaction buffer that consisted of 25 mM HEPES pH 7.5, 1 mM MnCl2, 1 mM MgCl2, 1 mM DTT, 0.01% Tween20. A mixture with a final concentration per well of 1 μM cold ATP, 0.1 μCi ^33P-ATP (Amersham AH9968) and 1 μM biotinylated Peptide 830 was then added. The reaction was initiated with the addition of either recombinant, GST-tagged mAur 1 (amino acids 67-345) that was co-expressed with human INCENP (amino acids 704-919) (DRT, Protein Sciences) at a final concentration of 12 nM or N-terminal His-tagged mAur2 (amino acids 98-395; DRT, Protein Sciences) at a final concentration of 20 nM. The final reaction volume in each well was 100 μL and the final compound concentration ranged from 10 μM-[…] in 1% DMSO. The reaction mixture was allowed to incubate for 1-2 hours with gentle agitation at 25° C. To terminate the reaction, streptavidin-coated SPA beads (Amersham RPNQ0007; 50 μL of 0.5 mg beads dissolved in 165 mM EDTA) were then added to each well and incubation proceeded for an additional 15 minutes at 25° C. The plate was then centrifuged for ten minutes at 2000 rpm. Phosphorylation of the peptide substrate was measured using a Wallac 1450 Microbeta Plus Liquid Scintillation Counter.

[2] = target: T3, murine Aurora Kinase 1 (mAur1) (Mus musculus, UniProt O70126); assay: murine Aurora Kinase 1 (mAur1) biochemical Scintillation Proximity Assay; conditions: SPA, biotinylated Peptide 830, 1 μM ATP, 12 nM GST-tagged mAur 1 co-expressed with human INCENP
T3 construct: recombinant, GST-tagged mAur 1 (amino acids 67-345) that was co-expressed with human INCENP; GST; made in house
Method: as §1

T3 sequence (O70126 67-345): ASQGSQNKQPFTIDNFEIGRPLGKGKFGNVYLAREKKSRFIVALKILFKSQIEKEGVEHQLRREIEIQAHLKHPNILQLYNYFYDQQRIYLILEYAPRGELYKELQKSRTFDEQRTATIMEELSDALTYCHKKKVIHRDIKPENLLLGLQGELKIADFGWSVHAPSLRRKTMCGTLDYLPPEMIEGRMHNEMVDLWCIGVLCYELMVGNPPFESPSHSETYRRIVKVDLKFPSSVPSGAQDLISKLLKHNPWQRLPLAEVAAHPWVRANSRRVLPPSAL
T3 sequence (Q9NQS7 704-918 partner): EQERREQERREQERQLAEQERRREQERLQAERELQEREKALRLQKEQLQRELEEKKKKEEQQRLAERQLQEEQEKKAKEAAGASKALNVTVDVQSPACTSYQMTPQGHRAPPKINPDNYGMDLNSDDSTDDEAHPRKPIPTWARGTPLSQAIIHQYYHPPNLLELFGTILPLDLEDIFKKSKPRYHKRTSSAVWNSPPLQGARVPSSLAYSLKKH
T1 sequence (Q96GD4 whole entry): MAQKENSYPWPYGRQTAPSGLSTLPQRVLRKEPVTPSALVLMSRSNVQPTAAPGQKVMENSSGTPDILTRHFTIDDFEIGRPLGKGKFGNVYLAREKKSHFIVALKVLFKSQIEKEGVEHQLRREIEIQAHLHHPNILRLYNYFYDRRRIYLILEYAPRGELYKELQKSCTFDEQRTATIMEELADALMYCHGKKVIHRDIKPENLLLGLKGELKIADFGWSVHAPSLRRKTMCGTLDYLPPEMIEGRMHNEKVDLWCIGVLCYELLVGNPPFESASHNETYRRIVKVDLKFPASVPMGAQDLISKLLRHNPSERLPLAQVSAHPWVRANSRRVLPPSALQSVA

Row | IC50 (Aurora Kinase 1) [nM] | IC50 [1] [nM] | IC50 [2] [nM] | SMILES
1 | < 1000 | – | – | CC(C)(C)c1ccc2nc(Nc3ccc(-c4c(C(=O)NCC(F)(F)F)cn5ncnc(N)c45)cc3)[nH]c2c1 [Example 10, 4-amino-5-{4-[(6-tert-butyl-1H-benzimidazol-2-yl)amino]phenyl}-N-(2,2,2-trifluoroethyl)pyrrolo[2,1-f][1,2,4]triazine-6-carboxamide]
2 | < 1000 | < 100 | < 100 | Nc1ncnn2cc(C(=O)NCC(F)(F)F)c(-c3ccc(Nc4nc5cc6c(cc5[nH]4)OC(F)(F)O6)cc3)c12 [Example 17, 4-amino-5-{4-[(2,2-difluoro-5H-[1,3]dioxolo[4,5-f]benzimidazol-6-yl)amino]phenyl}-N-(2,2,2-trifluoroethyl)pyrrolo[2,1-f][1,2,4]triazine-6-carboxamide]
3 | < 1000 | – | – | Nc1ncnn2cc(C(=O)NCC(F)(F)F)c(-c3ccc(Nc4nc5ccc(N6CCCC6)nc5[nH]4)cc3)c12 [Example 20, 4-amino-5-{4-[(5-pyrrolidin-1-yl-3H-imidazo[4,5-b]pyridin-2-yl)amino]phenyl}-N-(2,2,2-trifluoroethyl)pyrrolo[2,1-f][1,2,4]triazine-6-carboxamide]
4 | < 1000 | – | – | Nc1ncnn2cc(C(=O)NCC(F)(F)F)c(-c3ccc(Nc4nc5ccc(OC(F)(F)F)cc5[nH]4)cc3)c12 [Example 31, 4-amino-N-(2,2,2-trifluoroethyl)-5-(4-{[6-(trifluoromethoxy)-1H-benzimidazol-2-yl]amino}phenyl)pyrrolo[2,1-f][1,2,4]triazine-6-carboxamide]
5 | < 1000 | – | – | Nc1ncnn2cc(C(=O)NCC(F)(F)F)c(-c3ccc(Nc4nc5ccc(Oc6ccccc6)c(F)c5[nH]4)cc3)c12 [Example 32, 4-amino-5-{4-[(7-fluoro-6-phenoxy-1H-benzimidazol-2-yl)amino]phenyl}-N-(2,2,2-trifluoroethyl)pyrrolo[2,1-f][1,2,4]triazine-6-carboxamide]
6 | < 1000 | – | – | Nc1ncnn2cc(C(=O)NCC(F)(F)F)c(-c3ccc(Nc4nc5ccc(Oc6ccc(F)cc6)c(F)c5[nH]4)cc3)c12 [Example 35, 4-amino-5-(4-{[7-fluoro-6-(4-fluorophenoxy)-1H-benzimidazol-2-yl]amino}phenyl)-N-(2,2,2-trifluoroethyl)pyrrolo[2,1-f][1,2,4]triazine-6-carboxamide]
7 | < 1000 | < 100 | < 100 | Nc1ncnn2cc(C(=O)NCC(F)(F)F)c(-c3ccc(Nc4nc5ccc(NC6CCC6)nc5[nH]4)cc3)c12 [Example 47, 4-amino-5-(4-{[5-(cyclobutylamino)-3H-imidazo[4,5-b]pyridin-2-yl]amino}phenyl)-N-(2,2,2-trifluoroethyl)pyrrolo[2,1-f][1,2,4]triazine-6-carboxamide]
8 | < 1000 | < 100 | < 100 | CC(C)(C)NC(=O)c1cn2ncnc(N)c2c1-c1ccc(Nc2nc3cc(F)cc(F)c3[nH]2)cc1 [Example 72, 4-amino-N-(tert-butyl)-5-{4-[(5,7-difluoro-1H-benzimidazol-2-yl)amino]phenyl}pyrrolo[2,1-f][1,2,4]triazine-6-carboxamide]
9 | < 1000 | < 100 | < 100 | CNC(=O)c1cn2ncnc(N)c2c1-c1ccc(Nc2nc3ccc(Oc4ccccc4)c(F)c3[nH]2)cc1 [Example 102, 4-amino-5-{4-[(7-fluoro-6-phenoxy-1H-benzimidazol-2-yl)amino]phenyl}-N-methylpyrrolo[2,1-f][1,2,4]triazine-6-carboxamide]
10 | – | < 100 | < 100 | COCc1cccc(-c2ccc3nc(Nc4ccc(-c5c(C(=O)NCC(F)(F)F)cn6ncnc(N)c56)cc4)[nH]c3n2)c1 [Example 116, 4-amino-5-[4-({5-[3-(methoxymethyl)phenyl]-3H-imidazo[4,5-b]pyridin-2-yl}amino)phenyl]-N-(2,2,2-trifluoroethyl)pyrrolo[2,1-f][1,2,4]triazine-6-carboxamide]
11 | – | < 100 | < 100 | Nc1ncnn2cc(C(=O)O)c(-c3ccc(Nc4nc5ccc(C(F)(F)F)nc5[nH]4)cc3)c12 [Example 119]
12 | – | < 100 | < 100 | Nc1ncnn2cc(C(=O)NCC(F)(F)F)c(-c3ccc(Nc4nc5ccc(C(F)(F)F)nc5[nH]4)cc3)c12 [Example 120, 4-amino-N-(2,2,2-trifluoroethyl)-5-(4-{[5-(trifluoromethyl)-3H-imidazo[4,5-b]pyridin-2-yl]amino}phenyl)pyrrolo[2,1-f][1,2,4]triazine-6-carboxamide]
